# Test results as given in US12421229B2, “Hydropyrido[1,2-α]pyrazine compounds for the treatment of autoimmune disease” (Hoffmann-La Roche Inc., priority 2019, dated 2025).
# Molecular target: T1, human TLR8 (Homo sapiens, UniProt Q9NR97)
# T1 construct: host or cells: HEK293 (HEK-Blue hTLR8)
# T1 sequence (Q9NR97 27-1041): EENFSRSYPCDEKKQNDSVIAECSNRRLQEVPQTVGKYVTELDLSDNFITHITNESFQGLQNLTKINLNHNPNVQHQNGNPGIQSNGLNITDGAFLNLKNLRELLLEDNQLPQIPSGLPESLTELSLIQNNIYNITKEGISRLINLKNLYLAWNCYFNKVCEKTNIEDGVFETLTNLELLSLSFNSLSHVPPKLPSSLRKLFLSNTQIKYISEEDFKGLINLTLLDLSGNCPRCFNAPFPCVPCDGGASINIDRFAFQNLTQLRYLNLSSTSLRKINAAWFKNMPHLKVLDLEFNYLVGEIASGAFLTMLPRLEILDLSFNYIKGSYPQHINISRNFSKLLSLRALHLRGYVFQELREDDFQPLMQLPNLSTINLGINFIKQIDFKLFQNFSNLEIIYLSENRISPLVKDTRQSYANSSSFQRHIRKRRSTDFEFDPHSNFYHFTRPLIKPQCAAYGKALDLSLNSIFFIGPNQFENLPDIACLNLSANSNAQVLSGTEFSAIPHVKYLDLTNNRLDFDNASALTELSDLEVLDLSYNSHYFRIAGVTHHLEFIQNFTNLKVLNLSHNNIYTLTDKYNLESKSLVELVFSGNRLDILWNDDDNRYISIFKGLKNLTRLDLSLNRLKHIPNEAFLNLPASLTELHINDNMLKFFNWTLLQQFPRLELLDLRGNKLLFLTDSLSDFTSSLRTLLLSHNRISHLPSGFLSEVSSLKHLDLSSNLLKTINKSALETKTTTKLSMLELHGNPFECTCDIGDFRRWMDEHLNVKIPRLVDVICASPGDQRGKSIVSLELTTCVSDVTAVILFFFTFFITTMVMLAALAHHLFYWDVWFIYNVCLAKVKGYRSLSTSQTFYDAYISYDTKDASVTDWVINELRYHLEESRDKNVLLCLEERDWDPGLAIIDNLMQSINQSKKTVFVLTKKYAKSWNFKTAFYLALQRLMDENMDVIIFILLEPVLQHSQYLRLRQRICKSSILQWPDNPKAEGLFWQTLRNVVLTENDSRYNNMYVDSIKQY
# Experiment: HEK293-Blue-hTLR-8 cells assay
# Assay type: cell-based
# Conditions: HEK293-Blue-hTLR8 cells, R848 stimulation, 20 hrs, SEAP reporter; read-out: HEK/hTLR8 IC50
# Description: A stable HEK293-Blue-hTLR-8 cell line was purchased from InvivoGen (Cat. #: hkb-htlr8, San Diego, California, USA). These cells were originally designed for studying the stimulation of human TLR8 by monitoring the activation of NF-κB. A SEAP (secreted embryonic alkaline phosphatase) reporter gene was placed under the control of the IFN-β minimal promoter fused to five NF-κB and AP-1-binding sites. The SEAP was induced by activating NF-κB and AP-1 via stimulating HEK-Blue hTLR8 cells with TLR8 ligands. Therefore the reporter expression was declined by TLR8 antagonist under the stimulation of a ligand, such as R848, for incubation of 20 hrs. The cell culture supernatant SEAP reporter activity was determined using QUANTI-Blue™ kit (Cat. #: rep-qb1, Invivogen, San Diego, Ca, USA) at a wavelength of 640 nm, a detection medium that turns purple or blue in the presence of alkaline phosphatase.
# HEK293-Blue-hTLR8 cells were incubated at a density of 250,000˜450,000 cells/mL in a volume of 170 μL in a 96-well plate in Dulbecco's Modified Eagle's medium (DMEM) containing 4.5 g/L glucose, 50 U/mL penicillin, […], […], 2 mM L-glutamine, 10% (v/v) heat-inactivated fetal bovine serum with addition of 20 μL test compound in a serial dilution in the presence of final DMSO at 1% and 10 μL of 60 uM R848 in above DMEM, perform incubation under 37° C. in a CO2 incubator for 20 hrs. Then 20 μL of the supernatant from each well was incubated with 180 μL Quanti-blue substrate solution at 37° C. for 2 hrs and the absorbance was read at 620˜655 nm using a spectrophotometer. The signaling pathway that TLR8 activation leads to downstream NF-κB activation has been widely accepted, and therefore similar reporter assay was modified for evaluating TLR8 antagonist.
row,IC50 [nM],SMILES
1,45,"CO[C@H]1CN(c2ccc([C@@H]3CCN4[C@@H](C3)CN(c3ccc(C#N)c5ncccc35)C[C@H]4C)cn2)C[C@H]1N [Example 12, 5-[(4R,8R,9aS)-8-[6-[(3R,4S)-3-amino-4-methoxy-pyrrolidin-1-yl]-3-pyridyl]-4-methyl-1,3,4,6,7,8,9,9a-octahydropyrido[1,2-a]pyrazin-2-yl]quinoline-8-carbonitrile]"
2,116,"[2H]c1ccc2c(N3C[C@@H]4C[C@H](N5CCN(c6ccncc6)CC5)CCN4[C@H](C)C3)ccc(C#N)c2n1 [Example 37, 5-[(4R,8R,9aS)-4-methyl-8-[4-(4-pyridyl)piperazin-1-yl]-1,3,4,6,7,8,9,9a-octahydropyrido[1,2-a]pyrazin-2-yl]-2-deuterio-quinoline-8-carbonitrile]"
3,67,"C[C@@H]1CN(c2ccc(C#N)c3ncccc23)C[C@@H]2C[C@H](NCc3ccc(N4CCNCC4)cc3)CCN21 [Example 1, 5-[(4R,8R,9aS)-4-methyl-8-[(4-piperazin-1-ylphenyl)methylamino]-1,3,4,6,7,8,9,9a-octahydropyrido[1,2-a]pyrazin-2-yl]quinoline-8-carbonitrile]"
4,23,"C[C@@H]1CN(c2ccc(C#N)c3ncccc23)CC2C[C@H](c3ccc(N4CCNCC4)cc3)CCN21 (stereo partly drawn) [Example 3, 5-[(4R,8R)-4-methyl-8-(4-piperazin-1-ylphenyl)-1,3,4,6,7,8,9,9a-octahydropyrido[1,2-a]pyrazin-2-yl]quinoline-8-carbonitrile]"
5,7,"CO[C@H]1CN(c2ccc(O[C@H]3CCN4[C@@H](C3)CN(c3ccc(C#N)c5ncccc35)C[C@H]4C)cn2)C[C@H]1N [Example 28, 5-[(4R,8S,9aS)-8-[[6-[(3R,4S)-3-amino-4-methoxy-pyrrolidin-1-yl]-3-pyridyl]oxy]-4-methyl-1,3,4,6,7,8,9,9a-octahydropyrido[1,2-a]pyrazin-2-yl]quinoline-8-carbonitrile]"
6,6,"C[C@@H]1CN(c2ccc(C#N)c3ncccc23)C[C@@H]2C[C@@H](Oc3cnc(N4CCNCC4)nc3)CCN21 [Example 18, 5-[(4R,8S,9aS)-4-methyl-8-(2-piperazin-1-ylpyrimidin-5-yl)oxy-1,3,4,6,7,8,9,9a-octahydropyrido[1,2-a]pyrazin-2-yl]quinoline-8-carbonitrile]"
7,69,"CO[C@@H]1CN(c2ccc(C3CN([C@@H]4CCN5[C@@H](C4)CN(c4ccc(C#N)c6ncccc46)C[C@H]5C)C3)cc2)C[C@H]1N [Example 30, 5-[(4R,8R,9aS)-8-[3-[4-[(3R,4R)-3-amino-4-methoxy-pyrrolidin-1-yl]phenyl]azetidin-1-yl]-4-methyl-1,3,4,6,7,8,9,9a-octahydropyrido[1,2-a]pyrazin-2-yl]quinoline-8-carbonitrile]"
8,18,[2H]c1ccc2c(N3C[C@@H]4C[C@@H](N5CC(c6ccc(N7C[C@@H](N)[C@H](OC)C7)cc6)C5)CCN4[C@H](C)C3)ccc(C#N)c2n1 [Example 36]
9,54,"C[C@@H]1CN(c2ccc(C#N)c3ncccc23)C[C@@H]2C[C@H](Nc3ccc(C[C@@H]4CNCCO4)cc3)CCN21 [Example 21, 5-[(4R,8R,9aS)-4-methyl-8-[4-[[(2R)-morpholin-2-yl]methyl]anilino]-1,3,4,6,7,8,9,9a-octahydropyrido[1,2-a]pyrazin-2-yl]quinoline-8-carbonitrile]"
10,8,"C[C@@H]1CN(c2ccc(C#N)c3ncccc23)C[C@@H]2C[C@@H](Oc3ccc(N4CCNCC4)nc3)CCN21 [Example 16, 5-[(4R,8S,9aS)-4-methyl-8-[(6-piperazin-1-yl-3-pyridyl)oxy]-1,3,4,6,7,8,9,9a-octahydropyrido[1,2-a]pyrazin-2-yl]quinoline-8-carbonitrile]"
11,40,"[2H]c1ccc2c(N3C[C@@H]4C[C@H](Nc5ccc(C[C@H]6CNCCO6)cc5)CCN4[C@H](C)C3)ccc(C#N)c2n1 [Example 34, 5-[(4R,8R,9aS)-4-methyl-8-[4-[[(2S)-morpholin-2-yl]methyl]anilino]-1,3,4,6,7,8,9,9a-octahydropyrido[1,2-a]pyrazin-2-yl]-2-deuterio-quinoline-8-carbonitrile]"
12,27,"C[C@@H]1CN(c2ccc(C#N)c3ncccc23)C[C@@H]2C[C@@H](c3ccc(CC4CNCCO4)cc3)CCN21 (stereo partly drawn) [Example 26, 5-[(4R,8S,9aS)-4-methyl-8-[4-(morpholin-2-ylmethyl)phenyl]-1,3,4,6,7,8,9,9a-octahydropyrido[1,2-a]pyrazin-2-yl]quinoline-8-carbonitrile]"
13,18,"C[C@@H]1CN(c2ccc(C#N)c3ncccc23)C[C@@H]2C[C@H](c3ccc([C@@H]4CNCCO4)cc3)CCN21 [Example 27, 5-[(4R,8R,9aS)-4-methyl-8-[4-[(2R)-morpholin-2-yl]phenyl]-1,3,4,6,7,8,9,9a-octahydropyrido[1,2-a]pyrazin-2-yl]quinoline-8-carbonitrile]"
14,125,"C[C@@H]1CN(c2ccc(C#N)c3ncccc23)C[C@@H]2C[C@H](c3ccc(N4CC(N)C4)nc3)CCN21 [Example 7, 5-[(4R,8R,9aS)-8-[6-(3-aminoazetidin-1-yl)-3-pyridyl]-4-methyl-1,3,4,6,7,8,9,9a-octahydropyrido[1,2-a]pyrazin-2-yl]quinoline-8-carbonitrile]"
15,50,"C[C@@H]1CN(c2ccc(C#N)c3ncccc23)C[C@@H]2C[C@H](Nc3ccc([C@H]4CNCCO4)cc3)CCN21 [Example 20, 5-[(4R,8R,9aS)-4-methyl-8-[4-[(2S)-morpholin-2-yl]anilino]-1,3,4,6,7,8,9,9a-octahydropyrido[1,2-a]pyrazin-2-yl]quinoline-8-carbonitrile]"
16,79,"C[C@@H]1CN(c2ccc(C#N)c3ncccc23)C[C@@H]2C[C@H](c3ccc(N4CCOC[C@@H](N)C4)nc3)CCN21 [Example 23, 5-[(4R,8R,9aS)-8[6-[(6S)-6-amino-1,4-oxazepan-4-yl]-3-pyridyl]-4-methyl-1,3,4,6,7,8,9,9a-octahydropyrido[1,2-a]pyrazin-2-yl]quinoline-8-carbonitrile]"
17,48,"CO[C@@H]1CN(c2ccc([C@@H]3CCN4[C@@H](C3)CN(c3ccc(C#N)c5ncccc35)C[C@H]4C)cn2)C[C@H]1N [Example 14, 5-[(4R,8R,9aS)-8-[6-[(3R,4R)-3-amino-4-methoxy-pyrrolidin-1-yl]-3-pyridyl]-4-methyl-1,3,4,6,7,8,9,9a-octahydropyrido[1,2-a]pyrazin-2-yl]quinoline-8-carbonitrile]"
18,80,"C[C@@H]1CN(c2ccc(C#N)c3ncccc23)C[C@H]2C[C@H](c3ccc(N4CCNCC4)nc3)CCN21 [Example 15, 5-[(4R,8R,9aR)-4-methyl-8-(6-piperazin-1-yl-3-pyridyl)-1,3,4,6,7,8,9,9a-octahydropyrido[1,2-a]pyrazin-2-yl]quinoline-8-carbonitrile]"
19,46,"CO[C@@H]1CN(c2ccc([C@@H]3CCN4[C@@H](C3)CN(c3ccc(C#N)c5ncccc35)C[C@H]4C)cn2)C[C@@H]1N [Example 13, 5-[(4R,8R,9aS)-8-[6-[(3S,4R)-3-amino-4-methoxy-pyrrolidin-1-yl]-3-pyridyl]-4-methyl-1,3,4,6,7,8,9,9a-octahydropyrido[1,2-a]pyrazin-2-yl]quinoline-8-carbonitrile]"
